Consider 64 molecules from a melting point compilation (Tetko et al.; mined from patent text by program, amines drawn as free bases though some values may be those of a salt).

Where only a bound is given, the exact number is not on record here.

One may read the melting point as the temperature of the solid-liquid transition. Turning to `O=C(NCCc1ccccn1)Nc1cc(N2CC(c3ccccc3)CC2=O)ccn1` (centres undefined), the melting point was 202 to 204 °C.

`CN(c1ncc2ncnc(Nc3ccc(F)c(Cl)c3)c2n1)[C@H]1CC[C@H](N)CC1`: the melting point was in the range of 203 to 205 °C.

The molecule `Cc1cccc(C=NN2C(=O)CN(C(c3ccccc3)c3ccccc3)CC2=O)n1` returned a melting point of 161 to 163 °C.

Molecule `CCC1=C(c2ccc(F)c(F)c2)C(=NO)CC1` came in with a melting point of 136 to 137 °C.

On to `CCCn1nc2c(N)nc3ccccc3c2c1CCCc1cc(-c2ccccc2)no1`, for which the melting point was in the range of 176 to 178 °C.

With `C=CCOc1cc(N)c([N+](=O)[O-])cc1I`, the melting point was found to be 74 °C.

Turning to `CCN1C(=O)C(C)(C)C(=O)N(C)c2cc(CN(CCn3ccc4oc(C)cc4c3=O)Cc3cncn3C)ccc21`, the melting point was 106 to 108 °C.

On to `CCCCCCNc1nc(-c2ccc(F)cc2)c(-c2ccc(S(C)(=O)=O)cc2)s1`, for which the melting point was 161 to 162 °C.

As for `CCC(CC)NC(=O)Nc1cc(-c2c(-c3ccc(F)c(C)c3)nc3cccnn23)ccn1`, the melting point fell in the range of 187 to 188 °C.

Consider `Cc1oc(-c2ccccc2)nc1CCOc1ccc(COc2ccccc2CC(=O)O)cc1`, for which the melting point fell in the range of 141 to 142 °C.

In turn, `CC(O)CN1N=CCCC1c1ccc(Cl)c(Cl)c1` (centres undefined) showed a melting point of 75 to 77 °C.

Turning to `CC(C)(C)OC(=O)C=Cc1ccc2ccccc2n1`, the melting point is 96 to 97 °C.

In the case of `COc1ccc(-c2cccc(Nc3nccc(-c4sc(N)nc4-c4ccccc4)n3)c2)cc1OC`, the melting point was 236 to 237 °C.

In turn, `NNC(=O)NCCSSc1ccccn1` returned a melting point of 105 to 107 °C.

`COc1cc(/C=C/C=C/C(=O)NCCN2CCC(c3c[nH]c4ccccc34)CC2)cc(OC)c1OC(C)=O` had a melting point of 169 to 172 °C.

Take `Clc1nccc(Nc2cnc3ccccc3c2)n1`: the melting point lay in the range of 140 to 143 °C.

The molecule `CCOC(=O)c1cnn(-c2ccc(OCC(CC)CC)c(C#N)c2)c1` came in with a melting point of 114 to 115 °C.

`NC(=O)c1nc(-c2ccccc2)n2c1CN=C(c1ccccc1F)c1cc(Cl)ccc1-2` showed a melting point of 260 to 262 °C.

With `CCNc1nc(N)nc(N)n1`, the melting point turned out to be 171 °C.

The molecule `CC1(C)[C@@H](C=C(F)F)[C@@H]1C(=O)OCc1c(F)c(F)c(F)c(-c2ccccc2)c1F` (relative stereo) displayed a melting point of 69 to 72 °C.

With `CC(=O)c1cc2c(s1)C(=O)c1c(C(C)=O)csc1C2=O`, the melting point is 207 to 208 °C.

`NC1=Nc2ccc(Cl)cc2C2CCCC12F` (centres undefined): the melting point was 223 °C.

In the case of `CNc1c(F)cc2c(=O)c(C(=O)O)cn(-c3nc(N)c(F)cc3F)c2c1F`, the melting point was in the range of 270 to 273 °C.

`CC1(Cl)CSC2C(NC(=O)Cc3ccccc3)C(=O)N2C1C(=O)OCc1ccc([N+](=O)[O-])cc1` (centres undefined) gave a melting point of 134 to 136 °C.

As to `CCC(=O)c1ccc2c(Cc3ccccc3)c(CC)oc2c1`, the melting point lay within 86 to 87 °C.

In turn, `CN(CC(O)c1ccc(Br)cc1)C(=O)OC(C)(C)C` (centres undefined) had a melting point of 80 to 82 °C.

`CN1CCC(c2[nH]c(=O)c3ccccc3c2-c2ccccc2)CC1` came in with a melting point of 258 to 260 °C.

`CCCCCCCCCCCCNC(=O)c1cc(-c2cccc(OC)c2)c(OCC(=O)O)c(-c2cccc(OC)c2)c1` displayed a melting point of 57 to 58 °C.

`O=C(O)CNc1ccc(Cl)cc1C(=O)O` showed a melting point of 182 to 183 °C.

In turn, `NCC1Cc2cc(-c3cccc(C(F)(F)F)c3)cc(F)c2O1` (centres undefined) showed a melting point greater than 250 °C.

On to `CC(=O)NC=Nc1ccc2nnc(-c3ncc([N+](=O)[O-])n3C)n2n1`, for which the melting point lay within 237 to 241 °C.

In turn, `CCc1nnc(-c2ccc(N(C)C)cc2)n1-c1ccc(OC)cc1` had a melting point of 148 °C.

The molecule `CCC(CC)Nc1nc(C)nc(N2CCc3cc(OC)cc(Cl)c32)c1C#N` yielded a melting point of 192 to 194 °C.

`CC1=C(N2CCN(C(=O)Nc3ccc(Cl)cc3)CC2)C(=O)c2ccccc2C1=O` yielded a melting point of 190 to 192 °C.

`CCC(O)c1ccc(Cl)c2nc3n(c12)CCCN3c1c(Cl)cc(Cl)cc1Cl` (centres undefined) showed a melting point of 213 to 214 °C.

`O=C(Nc1ccc(CBr)c(C(F)(F)F)c1)C(F)(F)F`: the melting point lay within 119 to 120 °C.

For `CC1(C)Oc2ccc([N+](=O)[O-])cc2O1`, the melting point fell in the range of 89 to 91 °C.

The molecule `Cn1cnc2nc(-c3ccc(Br)cc3)nn2c1=S` showed a melting point greater than 300 °C.

In turn, `O=C(OC1CCCCC1)c1ncn2c1[C@@H]1CCCN1C(=O)c1c-2ccc(F)c1Cl` came in with a melting point of 163 to 166 °C.

In turn, `CC[C@H](C1CC1)n1cc(Cl)nc(N2CCc3cc(OC)c(F)c(Cl)c32)c1=O` returned a melting point of 128 to 130 °C.

The molecule `COC(=O)OCC1OC(n2cc(C)c(=O)[nH]c2=O)CC1OS(C)(=O)=O` (centres undefined) had a melting point of 70 to 72 °C.

Molecule `COc1ccc2c(c1)C(=O)OC21CCN(C)CC1` had a melting point of 123 to 125 °C.

With `Cc1cc(C)cc(C(=O)c2[nH]c(=O)[nH]c(=O)c2C(C)C)c1`, the melting point lay within 149 to 150 °C.

Molecule `Cc1cc(C)c2[nH]c(C(=O)O)cc2c1` yielded a melting point of 254 to 256 °C.

Consider `O=C(O)Cc1c(F)c(F)nc(F)c1Cl`, for which the melting point fell in the range of 127 to 129 °C.

`CCC(=O)c1cccc2cccc(O)c12` came in with a melting point of 114 to 117 °C.

The molecule `CC(=O)OCC(C)C1CCC2C3CC=C4CC(OC(C)=O)CCC4(C)C3CCC12C` (centres undefined) came in with a melting point of 125 to 127 °C.

`Nc1nc(COc2ccc(Cl)cc2)nc2nccnc12` yielded a melting point of 246 to 248 °C.

`CC(=O)NCc1ccc(CN2CCN(c3ccncc3)CC2)cc1` returned a melting point of 164 to 166 °C.

Take `CCOc1cc(OCC(=O)O)cc2c1C(=O)N(COC(=O)c1c(Cl)cccc1Cl)S2(=O)=O`: the melting point fell in the range of 179 to 180 °C.

As to `CCCOc1ccc(OC)cc1-c1ncc(C(=O)O)c(=O)[nH]1`, the melting point lay in the range of 185 to 187 °C.

As to `CC(C)C[C@H](NC(=O)OCc1ccccc1)C(=O)N[C@@H](Cc1ccccc1)C(=O)CS(C)(=O)=O`, the melting point fell in the range of 142 to 144 °C.

`O=C1c2ccccc2CN1CCC#Cc1ccccn1`: the melting point fell in the range of 94 to 98 °C.

Take `O=Cc1nccnc1OCc1ccccc1`: the melting point came to 69.4 °C.

`CCOC(=O)c1cnc(-c2ccc(OC)cc2OC)[nH]c1=O` came in with a melting point of 190 to 192 °C.

Take `CCCCCCCCCCCCCCCCCC(=O)NCC(COCCCCCCCCCCCCCCCC)COCc1ccccc1` (centres undefined): the melting point was in the range of 56 to 57 °C.

On to `COc1ccc(Nc2nc(NC3CCCCCC3)nc(N(C)C3CCN(C)CC3)n2)cc1Cl`, for which the melting point is 173 to 176 °C.

Take `CC(c1ccc(C(=O)N(C)C2CCCCC2)cc1)n1cnc2ccccc21` (centres undefined): the melting point fell in the range of 142 to 145 °C.

`CC1(C)CON(Cc2ccc(N)cc2Cl)C1=O` displayed a melting point of 106 to 108 °C.

`CCOC(=O)c1cn(-c2ccc(Cl)cn2)cn1` came in with a melting point of 163 to 164 °C.

For `CCCCNc1c(NCc2ccccc2)cc(C(=O)O)cc1S(N)(=O)=O`, the melting point fell in the range of 198 to 199 °C.

For `CC(=O)Nc1ccc2c(c1)CC1(OC1c1ccccc1)C2=O` (centres undefined), the melting point lay in the range of 195 to 197 °C.

`Cc1ccc(CCCO)c(NCc2ccc3nc(NCCCN4CCOCC4)n(Cc4cc(Br)ccc4O)c3c2)c1` showed a melting point of 134 °C.

`Cc1oc(-c2ccccc2)nc1CCc1ccc(COc2ccccc2CC(=O)O)cc1` displayed a melting point of 130 to 131 °C.
